Assay results taken from ChEMBL document CHEMBL3259758, “Thiazolopyridine ureas as novel antitubercular agents acting through inhibition of DNA Gyrase B” (J Med Chem, 2013).

Legend:
Plasma = settings: human
physchem = settings: octanol/water, pH 7.4
[1] = AUC in po dosed Balb/c mouse infected with Mycobacterium tuberculosis H37Rv administered via gavage for 10 days starting 3 days post-infection measured at day 9 of drug dosing; assay type: ADME, organism-based; settings: plasma

SMILES	Cp(f) (Plasma) [µM]	logD (physchem)	AUC [1] [µg·h/mL]
CCNC(=O)Nc1nc2cc(-c3ccn(CCOC)c(=O)c3)c(N[C@H]3CCOC3)nc2s1	13	–	–
C=CCNC(=O)Nc1nc2cc(-c3cccnc3)ccc2s1	0.7	3.9	–
C=CCNC(=O)Nc1nc2cc(-c3cccnc3)cnc2s1	3.2	2.9	–
CCNC(=O)Nc1nc2cc(-c3cccnc3)c(N[C@H]3CCOC3)nc2s1	28	2	200
CCNC(=O)Nc1nc2cc(-c3cccnc3)c(NCC3CCOC3)nc2s1 (stereo not drawn)	40	2.7	–
CCNC(=O)Nc1nc2cc(-c3ccc(F)nc3)c(OCC3CCOC3)nc2s1 (stereo not drawn)	0.6	–	–
CCNC(=O)Nc1nc2cc(-c3ccc(C)nc3)c(OCC3CCOC3)nc2s1 (stereo not drawn)	0.9	–	–
CCNC(=O)Nc1nc2cc(-c3cncc(OC)c3)c(OCC3CCOC3)nc2s1 (stereo not drawn)	2.5	–	–
CCNC(=O)Nc1nc2cc(-c3cnc(C)nc3)c(OCC3CCOC3)nc2s1 (stereo not drawn)	6	–	–
CCNC(=O)Nc1nc2cc(-c3ccc(C#N)nc3)c(NC3CCOCC3)nc2s1	6	–	–
CCNC(=O)Nc1nc2cc(-c3cncc(OCCN(C)C)c3)c(OCC3CCOC3)nc2s1 (stereo not drawn)	11	–	–
CCNC(=O)Nc1nc2cc(-c3cncc(OCCN4CCOCC4)c3)c(OCC3CCOC3)nc2s1 (stereo not drawn)	10	–	–
CCNC(=O)Nc1nc2cc(-c3ccn(C)c(=O)c3)c(OCC3CCOC3)nc2s1 (stereo not drawn)	5	–	–
CCNC(=O)Nc1nc2cc(-c3cc(C(C)C)n(C)c(=O)c3)c(OCC3CCOC3)nc2s1 (stereo not drawn)	4	–	–
CCNC(=O)Nc1nc2cc(-c3ccn(CCOC)c(=O)c3)c(OCC3CCOC3)nc2s1 (stereo not drawn)	7	–	–
CCNC(=O)Nc1nc2cc(-c3ccn(CCOC)c(=O)c3)c(O[C@@H]3CCOC3)nc2s1	11	–	–
CCNC(=O)Nc1nc2cc(-c3ccn(CCN(C)C)c(=O)c3)c(OCC3CCOC3)nc2s1 (stereo not drawn)	5	–	–
CCNC(=O)Nc1nc2cc(-c3ccn(CCN4CCOCC4)c(=O)c3)c(OCC3CCOC3)nc2s1 (stereo not drawn)	5	–	–
